According to patent US9809532B2, “Uses of histone acetyltransferase activators” (THE TRUSTEES OF COLUMBIA UNIVERSITY IN THE CITY OF NEW YORK, priority 2011, dated 2017):
“And” between values parts separate entries of the source, which are not always exact repeats. Equal values may be shown once. Read-outs that look alike come from different tables or passages of the source.

How the values were obtained:
[1] = biological target: T1, Sirtuin 2 (Homo sapiens, UniProt Q8IXJ6); assay: Sirtuin 2 activity assay (fluorescence); details: Compound 1 Log [nM] 4.0; Repeat1/Repeat2
T1 sequence (Q8IXJ6 1-389): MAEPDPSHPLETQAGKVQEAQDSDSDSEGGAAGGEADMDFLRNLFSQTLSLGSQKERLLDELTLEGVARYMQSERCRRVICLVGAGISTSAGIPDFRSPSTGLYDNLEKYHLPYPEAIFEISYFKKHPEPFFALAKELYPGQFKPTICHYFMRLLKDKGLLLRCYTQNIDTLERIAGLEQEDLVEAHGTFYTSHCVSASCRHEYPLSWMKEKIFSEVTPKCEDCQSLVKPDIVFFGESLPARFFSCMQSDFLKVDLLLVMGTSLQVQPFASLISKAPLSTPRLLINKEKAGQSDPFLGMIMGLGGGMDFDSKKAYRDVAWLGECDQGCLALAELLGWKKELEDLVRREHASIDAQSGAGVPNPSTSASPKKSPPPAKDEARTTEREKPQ

[2] = Kinetics in blood sampled from tails; format: in vivo, mice; details: 20 mg/kg i.p.
[3] = biological target: T2, HDAC10 (Homo sapiens, UniProt Q969S8); assay: HDAC10 activity assay (fluorescence); details: Compound 1 Log [nM] 4.5; Repeat1/Repeat2
T2 sequence (Q969S8 1-669): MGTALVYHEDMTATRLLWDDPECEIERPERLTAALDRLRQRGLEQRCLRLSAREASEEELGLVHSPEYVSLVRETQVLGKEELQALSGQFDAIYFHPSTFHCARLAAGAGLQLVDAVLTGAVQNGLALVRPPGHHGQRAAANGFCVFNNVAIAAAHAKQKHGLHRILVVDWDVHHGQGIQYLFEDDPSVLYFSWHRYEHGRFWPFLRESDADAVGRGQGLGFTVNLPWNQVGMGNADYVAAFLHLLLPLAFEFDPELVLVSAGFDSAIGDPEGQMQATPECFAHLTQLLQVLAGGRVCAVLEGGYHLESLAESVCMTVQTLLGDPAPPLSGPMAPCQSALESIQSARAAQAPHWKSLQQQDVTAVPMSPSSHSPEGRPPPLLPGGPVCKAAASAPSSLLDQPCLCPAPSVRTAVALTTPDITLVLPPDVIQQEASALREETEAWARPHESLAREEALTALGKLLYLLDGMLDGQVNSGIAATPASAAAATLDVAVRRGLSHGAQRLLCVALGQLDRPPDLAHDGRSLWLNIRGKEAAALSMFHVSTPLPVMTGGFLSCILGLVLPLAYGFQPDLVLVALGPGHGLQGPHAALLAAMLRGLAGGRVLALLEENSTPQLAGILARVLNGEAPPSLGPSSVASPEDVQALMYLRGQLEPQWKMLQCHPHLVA

[4] = biological target: human GCN5 (Homo sapiens, UniProt Q92830); assay: GCN5 activation, in vitro assay; format: biochemical
[5] = biological target: HDAC3/NCOR2 (Homo sapiens, UniProt O15379); assay: HDAC3/NCOR2 activity assay (fluorescence); details: Repeat1/Repeat2
[6] = system: mouse model of Alzheimer's disease; assay: Memory deficits in a mouse model of Alzheimer's disease; format: in vivo
[7] = biological target: human PCAF (Homo sapiens, UniProt Q92831); assay: PCAF activation, in vitro assay; format: biochemical
[8] = system: HDAC 1, 3, 5, 6, 7, 8, 10, 11, and sirt1-2; assay: HDAC activity assays, summary over the panel; format: biochemical; details: HDAC 1, 3, 5, 6, 7, 8, 10, 11, sirt1-2
Procedure: Assay Conditions. A series of dilution of the test compounds were prepared with 10% DMSO in assay buffer and 5 μl of the dilution was added to a 50 μl reaction so that the final concentration of DMSO is 1% in all of reactions. All of the enzymatic reactions were conducted in duplicate at 37° C. for 30 minutes except of HDAC11 at room temperature for 3 hours. The 50 μl reaction mixture contains HDAC assay buffer, 5 μg BSA, an HDAC substrate, an HDAC enzyme and a test compound. After enzymatic reactions, 50 μl of HDAC Developer was added to each well and the plate was incubated at room temperature for an additional 20 minutes. Fluorescence intensity was measured at an excitation of 360 nm and an emission of 460 nm using a Tecan Infinite M1000 microplate reader.
Data Analysis. HDAC activity assays were performed in duplicates at each concentration. The fluorescent intensity data were analyzed using the computer software, Graphpad Prism. In the absence of the compound, the fluorescent intensity (Ft) in each data set was defined as 100% activity. In the absence of HDAC, the fluorescent intensity (Fb) in each data set was defined as 0% activity. […] The percent activity in the presence of each compound was calculated according to the following equation: % activity=(F−Fb)/(Ft−Fb), where F=the fluorescent intensity in the presence of the compound. […]

[9] = Chronic administration, adverse effects; format: in vivo; details: 45 days, i.p., daily, 20 mg/kg
[10] = Acute toxicity experiments; format: in vivo; details: i.p.
[11] = system: ACH3 (acetylated histone H3); assay: Western blotting for ACH3 in hippocampus after administration; format: in vivo, mice
Procedure: Two and four hrs after its administration, the mice were sacrificed and hippocampi were extracted. […] Purity was verified through Nuclear Magnetic Resonance (NMR) spectroscopy. […] Hippocampus extraction was made at 3 different time points (0.5, 1 and 2 hrs post treatment). A western blotting for ACH3 was then performed.

[12] = biological target: human p300 (Homo sapiens, UniProt Q09472); assay: p300 activation, in vitro assay; format: biochemical
[13] = biological target: HDAC5FL (Homo sapiens, UniProt Q9UQL6); assay: HDAC5FL activity assay (fluorescence)
Chain of HDAC5FL (Q9UQL6 whole entry): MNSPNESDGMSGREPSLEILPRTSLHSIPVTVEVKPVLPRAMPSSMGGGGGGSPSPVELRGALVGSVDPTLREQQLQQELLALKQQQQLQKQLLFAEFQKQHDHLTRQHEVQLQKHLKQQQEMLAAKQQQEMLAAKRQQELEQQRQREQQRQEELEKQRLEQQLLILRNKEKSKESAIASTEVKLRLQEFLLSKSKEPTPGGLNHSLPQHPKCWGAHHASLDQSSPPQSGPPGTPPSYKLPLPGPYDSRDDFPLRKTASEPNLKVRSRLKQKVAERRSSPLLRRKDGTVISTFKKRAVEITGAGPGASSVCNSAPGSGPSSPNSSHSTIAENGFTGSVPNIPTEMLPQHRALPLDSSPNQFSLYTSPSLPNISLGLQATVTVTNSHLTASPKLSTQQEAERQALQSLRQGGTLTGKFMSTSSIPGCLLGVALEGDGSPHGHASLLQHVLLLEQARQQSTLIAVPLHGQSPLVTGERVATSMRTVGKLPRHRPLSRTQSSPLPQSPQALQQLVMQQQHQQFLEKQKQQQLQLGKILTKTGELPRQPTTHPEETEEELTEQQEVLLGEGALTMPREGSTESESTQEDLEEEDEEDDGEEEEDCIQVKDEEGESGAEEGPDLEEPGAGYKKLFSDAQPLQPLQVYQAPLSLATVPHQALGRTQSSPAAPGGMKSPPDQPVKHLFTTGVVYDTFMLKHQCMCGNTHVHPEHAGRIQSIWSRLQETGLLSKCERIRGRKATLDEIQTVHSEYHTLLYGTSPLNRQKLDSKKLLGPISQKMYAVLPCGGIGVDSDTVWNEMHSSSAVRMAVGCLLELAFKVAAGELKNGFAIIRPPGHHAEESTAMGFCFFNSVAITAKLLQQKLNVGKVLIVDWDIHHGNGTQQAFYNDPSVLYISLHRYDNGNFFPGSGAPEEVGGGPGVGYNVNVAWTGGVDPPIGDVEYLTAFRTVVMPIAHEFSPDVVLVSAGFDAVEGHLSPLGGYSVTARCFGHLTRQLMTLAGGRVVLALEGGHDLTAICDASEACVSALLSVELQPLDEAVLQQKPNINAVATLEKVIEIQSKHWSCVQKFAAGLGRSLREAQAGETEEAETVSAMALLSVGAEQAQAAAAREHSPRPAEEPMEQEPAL

Chain of human p300 (Q09472 whole entry): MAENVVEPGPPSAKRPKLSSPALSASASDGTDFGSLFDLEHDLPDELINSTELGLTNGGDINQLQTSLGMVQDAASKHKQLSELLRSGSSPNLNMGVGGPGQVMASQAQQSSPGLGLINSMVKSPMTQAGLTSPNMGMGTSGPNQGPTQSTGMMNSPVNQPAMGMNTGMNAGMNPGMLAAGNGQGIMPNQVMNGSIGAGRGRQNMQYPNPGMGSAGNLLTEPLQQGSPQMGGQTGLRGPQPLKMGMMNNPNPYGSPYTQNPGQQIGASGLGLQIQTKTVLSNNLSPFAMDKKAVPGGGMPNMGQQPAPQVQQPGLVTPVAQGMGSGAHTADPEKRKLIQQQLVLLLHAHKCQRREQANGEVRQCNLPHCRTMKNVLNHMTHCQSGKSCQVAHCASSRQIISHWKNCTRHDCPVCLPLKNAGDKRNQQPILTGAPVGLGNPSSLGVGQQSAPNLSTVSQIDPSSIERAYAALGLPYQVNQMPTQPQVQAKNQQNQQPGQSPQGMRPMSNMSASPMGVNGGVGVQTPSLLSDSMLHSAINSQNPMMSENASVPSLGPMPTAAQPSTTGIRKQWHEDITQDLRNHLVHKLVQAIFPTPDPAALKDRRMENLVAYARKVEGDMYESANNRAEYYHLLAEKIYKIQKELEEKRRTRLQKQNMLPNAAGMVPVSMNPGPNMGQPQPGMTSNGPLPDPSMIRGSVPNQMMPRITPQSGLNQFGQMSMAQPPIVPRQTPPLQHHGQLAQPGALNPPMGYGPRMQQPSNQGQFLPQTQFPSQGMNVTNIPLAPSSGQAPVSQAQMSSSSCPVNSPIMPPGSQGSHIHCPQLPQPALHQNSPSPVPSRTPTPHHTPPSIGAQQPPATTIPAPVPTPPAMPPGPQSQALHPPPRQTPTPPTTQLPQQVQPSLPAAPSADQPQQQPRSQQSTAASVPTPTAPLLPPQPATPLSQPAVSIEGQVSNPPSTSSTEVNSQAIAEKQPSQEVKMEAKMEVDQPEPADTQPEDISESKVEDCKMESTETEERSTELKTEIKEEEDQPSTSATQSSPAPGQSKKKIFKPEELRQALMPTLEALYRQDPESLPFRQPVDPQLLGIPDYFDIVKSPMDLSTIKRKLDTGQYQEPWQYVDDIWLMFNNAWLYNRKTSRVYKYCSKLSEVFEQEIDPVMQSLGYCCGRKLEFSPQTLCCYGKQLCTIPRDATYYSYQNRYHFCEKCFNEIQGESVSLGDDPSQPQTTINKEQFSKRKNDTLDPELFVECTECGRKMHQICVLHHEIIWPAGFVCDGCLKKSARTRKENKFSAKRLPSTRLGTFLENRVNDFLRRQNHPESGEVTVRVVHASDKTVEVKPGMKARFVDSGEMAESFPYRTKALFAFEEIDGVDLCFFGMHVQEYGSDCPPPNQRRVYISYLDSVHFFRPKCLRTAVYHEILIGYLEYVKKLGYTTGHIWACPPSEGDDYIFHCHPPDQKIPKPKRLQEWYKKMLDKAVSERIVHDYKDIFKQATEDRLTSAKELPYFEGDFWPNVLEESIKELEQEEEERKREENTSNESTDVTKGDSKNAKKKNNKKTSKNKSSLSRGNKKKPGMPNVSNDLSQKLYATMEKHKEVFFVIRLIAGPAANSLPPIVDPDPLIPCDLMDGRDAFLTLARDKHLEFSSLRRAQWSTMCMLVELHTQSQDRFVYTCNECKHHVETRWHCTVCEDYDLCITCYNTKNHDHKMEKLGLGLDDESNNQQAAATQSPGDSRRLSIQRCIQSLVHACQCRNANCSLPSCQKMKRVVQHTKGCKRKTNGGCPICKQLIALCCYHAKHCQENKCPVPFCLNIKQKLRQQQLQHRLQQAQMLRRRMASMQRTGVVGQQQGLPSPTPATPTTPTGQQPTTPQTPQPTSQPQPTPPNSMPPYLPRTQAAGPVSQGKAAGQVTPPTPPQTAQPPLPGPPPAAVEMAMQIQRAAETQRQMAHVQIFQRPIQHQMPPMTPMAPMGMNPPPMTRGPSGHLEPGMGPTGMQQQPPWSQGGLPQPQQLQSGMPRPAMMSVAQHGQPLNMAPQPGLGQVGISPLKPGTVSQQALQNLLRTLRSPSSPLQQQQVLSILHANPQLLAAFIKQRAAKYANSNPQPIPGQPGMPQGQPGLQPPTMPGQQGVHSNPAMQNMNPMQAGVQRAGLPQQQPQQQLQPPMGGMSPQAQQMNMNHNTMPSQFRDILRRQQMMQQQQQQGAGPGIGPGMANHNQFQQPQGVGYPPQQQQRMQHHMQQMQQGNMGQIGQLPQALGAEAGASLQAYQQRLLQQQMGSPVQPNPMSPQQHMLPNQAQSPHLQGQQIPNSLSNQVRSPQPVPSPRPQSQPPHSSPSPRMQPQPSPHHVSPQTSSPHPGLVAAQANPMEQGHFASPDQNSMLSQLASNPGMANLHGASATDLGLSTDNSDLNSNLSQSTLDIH
Chain of HDAC3/NCOR2 (O15379 whole entry): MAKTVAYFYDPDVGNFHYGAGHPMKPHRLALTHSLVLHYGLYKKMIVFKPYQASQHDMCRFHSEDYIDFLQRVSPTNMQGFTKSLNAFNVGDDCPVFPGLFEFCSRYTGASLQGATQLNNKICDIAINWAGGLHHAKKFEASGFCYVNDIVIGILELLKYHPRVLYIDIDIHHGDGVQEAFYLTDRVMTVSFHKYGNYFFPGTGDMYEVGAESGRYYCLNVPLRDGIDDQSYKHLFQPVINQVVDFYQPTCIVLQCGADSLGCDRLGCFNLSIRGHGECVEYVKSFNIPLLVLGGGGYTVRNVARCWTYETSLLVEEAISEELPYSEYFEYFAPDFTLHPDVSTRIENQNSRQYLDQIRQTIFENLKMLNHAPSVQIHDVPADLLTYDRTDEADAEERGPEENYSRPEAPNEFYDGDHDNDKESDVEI
Chain of HDAC3/NCOR2 (Q9Y618 395-489 partner limits assumed): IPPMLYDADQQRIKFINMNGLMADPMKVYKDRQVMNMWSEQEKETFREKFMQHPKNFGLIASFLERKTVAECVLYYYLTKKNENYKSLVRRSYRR
Chain of human PCAF (Q92831 whole entry): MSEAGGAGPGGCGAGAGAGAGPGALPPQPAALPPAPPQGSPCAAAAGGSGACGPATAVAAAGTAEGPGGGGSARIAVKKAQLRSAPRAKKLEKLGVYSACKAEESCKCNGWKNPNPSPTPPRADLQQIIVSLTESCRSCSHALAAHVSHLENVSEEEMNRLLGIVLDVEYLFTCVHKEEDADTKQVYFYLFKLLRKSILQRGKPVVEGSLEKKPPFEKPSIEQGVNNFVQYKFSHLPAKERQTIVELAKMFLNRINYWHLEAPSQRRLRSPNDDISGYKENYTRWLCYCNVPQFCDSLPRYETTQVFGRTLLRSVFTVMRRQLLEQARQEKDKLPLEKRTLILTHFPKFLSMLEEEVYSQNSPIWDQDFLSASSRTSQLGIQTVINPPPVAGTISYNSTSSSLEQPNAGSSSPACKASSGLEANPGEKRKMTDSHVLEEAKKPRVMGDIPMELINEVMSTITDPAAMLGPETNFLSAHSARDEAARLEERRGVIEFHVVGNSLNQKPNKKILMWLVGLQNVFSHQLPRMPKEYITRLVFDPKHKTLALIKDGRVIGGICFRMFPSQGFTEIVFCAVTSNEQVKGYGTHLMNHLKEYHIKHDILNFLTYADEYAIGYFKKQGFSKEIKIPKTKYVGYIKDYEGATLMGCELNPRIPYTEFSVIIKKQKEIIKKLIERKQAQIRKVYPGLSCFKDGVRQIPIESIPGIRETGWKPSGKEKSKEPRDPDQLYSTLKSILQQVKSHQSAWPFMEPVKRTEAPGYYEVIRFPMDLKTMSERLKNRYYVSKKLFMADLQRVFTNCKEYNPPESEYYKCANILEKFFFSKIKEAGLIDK

CCOc1cccc(OCCN(C)C)c1C(=O)Nc1ccc(Cl)c(C(F)(F)F)c1 [Compound 1]
% Activity (Sirtuin 2) [1]: 97.71%
time of peak in blood post-injection [2]: around 30 minutes
% Activity (HDAC10) [3]: 102.89%
EC50 [4]: 49.3 µM and 65.2 µM
% Activity (HDAC3/NCOR2) ([5]; Compound 1 Log [nM] 0.5): 102.35% and 89.76%
% Activity (HDAC3/NCOR2) ([5]; Compound 1 Log [nM] 1.0): 98.01% and 97.56%
% Activity (HDAC3/NCOR2) ([5]; Compound 1 Log [nM] 1.5): 101.44% and 96.12%
% Activity (HDAC3/NCOR2) ([5]; Compound 1 Log [nM] 2.0): 102.25% and 94.61%
% Activity (HDAC3/NCOR2) ([5]; Compound 1 Log [nM] 2.5): 101.07% and 95.51%
% Activity (HDAC3/NCOR2) ([5]; Compound 1 Log [nM] 3.0): 99.62% and 94.38%
% Activity (HDAC3/NCOR2) ([5]; Compound 1 Log [nM] 3.5): 97.14% and 94.27%
% Activity (HDAC3/NCOR2) ([5]; Compound 1 Log [nM] 4.0): 108.31% and 94.90%
% Activity (HDAC3/NCOR2) ([5]; Compound 1 Log [nM] 4.5): 87.66% and 88.97%
% Activity (HDAC3/NCOR2) ([5]; Compound 1 Log [nM] 5.3): 89.40% and 102.23%
memory deficits [6]: ameliorate memory deficits
EC50 [7]: 29 µM and 18.1 µM
HDAC inhibition (in words) [8]: does not inhibit HDACs
HDAC inhibition (in words) ([8]; listed as compound 1): did not interfere with p300 and HDAC activity
adverse effects on chronic administration [9]: did not have adverse effects
dose without any adverse effects, acute toxicity [10]: up to 300 mg/kg
ACH3 in hippocampus ([11]; 50 mg/kg i.p., 2 and 4 hrs, FIG. 1): increase ACH3
ACH3 levels in hippocampus ([11]; 5, 10, 20 mg/Kg i.p. in saline, 0.5, 1, 2 hrs, except 1 hr-10 mg/kg, FIG. 2): dramatically increased ACH3 levels
effect on p300 activity [12]: increases p300 activity
EC50 ([12]; FIG. 16): 0.79 µM
effect on p300 activity ([12]; listed as compound 1): did not interfere with p300
IC50 [13]: > 200 µM
% Activity (HDAC5FL) ([13]; Compound 1 Log [nM] 3.0, Repeat1/Repeat2): 99.80%
